Article PMC5518309 (ChemMedChem, 2014)
Numbered stars: 1 amine (or outer) side, 2 acyl side, 3 side chain; on linkers, the order of the positions; unused ones are H or OH. Side chains are listed from the residue outwards. Peptide text beside a SMILES is read from it. * marks the point of attachment. X1 = CN(C)c1ccc2c(c1)Oc1cc(N(C)C)ccc1C21OC(=O)c2ccc(C(=O)*)cc21; γGlu = O=C(O)[C@H](CCC(=O)[*:2])N[*:1]; Palmitoyl = CCCCCCCCCCCCCCCC(=O)*; Octanoyl = CCCCCCCC(=O)*; Propionyl = CCC(=O)*

Assays:
[1] = cited from earlier work
hY4R = hY4R (Homo sapiens, UniProt P50391); experiment: Radioligand binding assay, displacement of [3H]-hPP
[2] = Stability test in human blood plasma; format: in vitro ADME; conditions: for half-life at 10 μM: human
[3] = Metabolic stability in porcine liver homogenates; format: in vitro ADME; conditions: pig, porcine liver homogenate (supernatant)

Chain of hY4R (P50391 whole entry): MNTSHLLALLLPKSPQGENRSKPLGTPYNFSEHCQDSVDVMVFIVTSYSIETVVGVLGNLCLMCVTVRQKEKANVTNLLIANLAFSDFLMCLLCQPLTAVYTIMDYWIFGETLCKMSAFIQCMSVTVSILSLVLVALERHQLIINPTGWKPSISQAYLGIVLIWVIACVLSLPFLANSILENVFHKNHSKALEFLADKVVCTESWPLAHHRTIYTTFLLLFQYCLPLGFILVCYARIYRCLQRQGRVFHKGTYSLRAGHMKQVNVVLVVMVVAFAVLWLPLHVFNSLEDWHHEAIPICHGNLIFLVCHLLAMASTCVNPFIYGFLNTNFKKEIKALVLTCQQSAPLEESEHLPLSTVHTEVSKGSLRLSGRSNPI

Molecule	IC50 (hY4R) [nM]	half-life at 10 μM [2] [h]	half-life at 10 μM [3] [h]	other results
pancreatic polypeptide [PP]	–	–	–	half-life in the circulation [1]: less than 7 min
CCCCCCCCCCCCCCCC(=O)N[C@@H](CCC(=O)NCCCC[C@H](NC(=O)[C@H](C)NC(=O)[C@H](Cc1ccc(O)cc1)NC(=O)[C@H](CCC(N)=O)NC(=O)[C@H](C)NC(=O)[C@H](CCSC)NC(=O)[C@H](CCC(N)=O)NC(=O)[C@H](CCC(=O)O)NC(=O)[C@@H]1CCCN1C(=O)[C@@H](NC(=O)[C@H](C)NC(=O)[C@H](CC(N)=O)NC(=O)[C@H](CC(=O)O)NC(=O)CNC(=O)[C@@H]1CCCN1C(=O)[C@H](Cc1ccc(O)cc1)NC(=O)[C@@H](NC(=O)[C@@H]1CCCN1C(=O)[C@H](CCC(=O)O)NC(=O)[C@H](CC(C)C)NC(=O)[C@@H]1CCCN1C(=O)[C@H](C)NC(=O)c1ccc2c(c1)C(=O)OC21c2ccc(O)cc2Oc2cc(O)ccc21)C(C)C)[C@@H](C)O)C(=O)N[C@@H](CC(=O)O)C(=O)N[C@@H](CC(C)C)C(=O)N[C@@H](CCCNC(=N)N)C(=O)N[C@@H](CCCNC(=N)N)C(=O)N[C@@H](Cc1ccc(O)cc1)C(=O)N[C@H](C(=O)N[C@@H](CC(N)=O)C(=O)N[C@@H](CCSC)C(=O)N[C@@H](CC(C)C)C(=O)N[C@H](C(=O)N[C@@H](CCCNC(=N)N)C(=O)N1CCC[C@H]1C(=O)N[C@@H](CCCNC(=N)N)C(=O)N[C@@H](Cc1ccc(O)cc1)C(N)=O)[C@@H](C)O)[C@@H](C)CC)C(=O)O [compound 5, CF-[K^22(E-Pam)]hPP]	8.6	–	–	–
CCCCCCCCCCCCCCCC(=O)N[C@@H](CCC(=O)NCCCC[C@H](NC(=O)[C@H](CC(N)=O)NC(=O)[C@@H](NC(=O)[C@H](Cc1ccc(O)cc1)NC(=O)[C@H](CCCNC(=N)N)NC(=O)[C@H](CCCNC(=N)N)NC(=O)[C@H](CC(C)C)NC(=O)[C@H](CC(=O)O)NC(=O)[C@H](C)NC(=O)[C@H](C)NC(=O)[C@H](Cc1ccc(O)cc1)NC(=O)[C@H](CCC(N)=O)NC(=O)[C@H](C)NC(=O)[C@H](CCSC)NC(=O)[C@H](CCC(N)=O)NC(=O)[C@H](CCC(=O)O)NC(=O)[C@@H]1CCCN1C(=O)[C@@H](NC(=O)[C@H](C)NC(=O)[C@H](CC(N)=O)NC(=O)[C@H](CC(=O)O)NC(=O)CNC(=O)[C@@H]1CCCN1C(=O)[C@H](Cc1ccc(O)cc1)NC(=O)[C@@H](NC(=O)[C@@H]1CCCN1C(=O)[C@H](CCC(=O)O)NC(=O)[C@H](CC(C)C)NC(=O)[C@@H]1CCCN1C(=O)[C@H](C)NC(=O)c1ccc2c(c1)C(=O)OC21c2ccc(O)cc2Oc2cc(O)ccc21)C(C)C)[C@@H](C)O)[C@@H](C)CC)C(=O)N[C@@H](CC(C)C)C(=O)N[C@H](C(=O)N[C@@H](CCCNC(=N)N)C(=O)N1CCC[C@H]1C(=O)N[C@@H](CCCNC(=N)N)C(=O)N[C@@H](Cc1ccc(O)cc1)C(N)=O)[C@@H](C)O)C(=O)O [compound 6, CF-[K^30(E-Pam)]hPP]	14.9	–	–	–
CCCCCCCCCCCCCCCC(=O)N[C@@H](CCC(=O)NCCCC[C@H](NC(=O)[C@@H](NC(=O)[C@@H]1CCCN1C(=O)[C@H](CCC(=O)O)NC(=O)[C@H](CC(C)C)NC(=O)[C@@H]1CCCN1C(=O)[C@H](C)NC(=O)c1ccc2c(c1)C(=O)OC21c2ccc(O)cc2Oc2cc(O)ccc21)C(C)C)C(=O)N1CCC[C@H]1C(=O)NCC(=O)N[C@@H](CC(=O)O)C(=O)N[C@@H](CC(N)=O)C(=O)N[C@@H](C)C(=O)N[C@H](C(=O)N1CCC[C@H]1C(=O)N[C@@H](CCC(=O)O)C(=O)N[C@@H](CCC(N)=O)C(=O)N[C@@H](CCSC)C(=O)N[C@@H](C)C(=O)N[C@@H](CCC(N)=O)C(=O)N[C@@H](Cc1ccc(O)cc1)C(=O)N[C@@H](C)C(=O)N[C@@H](C)C(=O)N[C@@H](CC(=O)O)C(=O)N[C@@H](CC(C)C)C(=O)N[C@@H](CCCNC(=N)N)C(=O)N[C@@H](CCCNC(=N)N)C(=O)N[C@@H](Cc1ccc(O)cc1)C(=O)N[C@H](C(=O)N[C@@H](CC(N)=O)C(=O)N[C@@H](CCSC)C(=O)N[C@@H](CC(C)C)C(=O)N[C@H](C(=O)N[C@@H](CCCNC(=N)N)C(=O)N1CCC[C@H]1C(=O)N[C@@H](CCCNC(=N)N)C(=O)N[C@@H](Cc1ccc(O)cc1)C(N)=O)[C@@H](C)O)[C@@H](C)CC)[C@@H](C)O)C(=O)O [compound 3, CF-[K^7(E-Pam)]hPP]	401	–	–	–
CC[C@H](C)[C@H](NC(=O)[C@H](Cc1ccc(O)cc1)NC(=O)[C@H](CCCNC(=N)N)NC(=O)[C@H](CCCNC(=N)N)NC(=O)[C@H](CC(C)C)NC(=O)[C@H](CC(=O)O)NC(=O)[C@H](C)NC(=O)[C@H](C)NC(=O)[C@H](Cc1ccc(O)cc1)NC(=O)[C@H](CCC(N)=O)NC(=O)[C@H](C)NC(=O)[C@H](CCSC)NC(=O)[C@H](CCC(N)=O)NC(=O)[C@H](CCC(=O)O)NC(=O)[C@@H]1CCCN1C(=O)[C@@H](NC(=O)[C@H](C)NC(=O)[C@H](CC(N)=O)NC(=O)[C@H](CC(=O)O)NC(=O)CNC(=O)[C@@H]1CCCN1C(=O)[C@H](Cc1ccc(O)cc1)NC(=O)[C@@H](NC(=O)[C@@H]1CCCN1C(=O)[C@H](CCC(=O)O)NC(=O)[C@H](CC(C)C)NC(=O)[C@@H]1CCCN1C(=O)c1ccc2c(c1)C1(OC2=O)c2ccc(N(C)C)cc2Oc2cc(N(C)C)ccc21)C(C)C)[C@@H](C)O)C(=O)N[C@@H](CC(N)=O)C(=O)N[C@@H](CCCCN)C(=O)N[C@@H](CC(C)C)C(=O)N[C@H](C(=O)N[C@@H](CCCNC(=N)N)C(=O)N1CCC[C@H]1C(=O)N[C@@H](CCCNC(=N)N)C(=O)N[C@@H](Cc1ccc(O)cc1)C(N)=O)[C@@H](C)O [14b, TAMRA-[K^30]hPP2–36] (X1-PLEPVYPGDNATPEQMAQYAADLRRYINKLTRPRY-NH2)	–	~100	11 ± 0.4	–
CCCCCCCCCCCCCCCC(=O)N[C@@H](CCC(=O)NCCCC[C@H](NC(=O)[C@H](CC(N)=O)NC(=O)[C@@H](NC(=O)[C@H](Cc1ccc(O)cc1)NC(=O)[C@H](CCCNC(=N)N)NC(=O)[C@H](CCCNC(=N)N)NC(=O)[C@H](CC(C)C)NC(=O)[C@H](CC(=O)O)NC(=O)[C@H](C)NC(=O)[C@H](C)NC(=O)[C@H](Cc1ccc(O)cc1)NC(=O)[C@H](CCC(N)=O)NC(=O)[C@H](C)NC(=O)[C@H](CCSC)NC(=O)[C@H](CCC(N)=O)NC(=O)[C@H](CCC(=O)O)NC(=O)[C@@H]1CCCN1C(=O)[C@@H](NC(=O)[C@H](C)NC(=O)[C@H](CC(N)=O)NC(=O)[C@H](CC(=O)O)NC(=O)CNC(=O)[C@@H]1CCCN1C(=O)[C@H](Cc1ccc(O)cc1)NC(=O)[C@@H](NC(=O)[C@@H]1CCCN1C(=O)[C@H](CCC(=O)O)NC(=O)[C@H](CC(C)C)NC(=O)[C@@H]1CCCN1C(=O)c1ccc2c(c1)C1(OC2=O)c2ccc(N(C)C)cc2Oc2cc(N(C)C)ccc21)C(C)C)[C@@H](C)O)[C@@H](C)CC)C(=O)N[C@@H](CC(C)C)C(=O)N[C@H](C(=O)N[C@@H](CCCNC(=N)N)C(=O)N1CCC[C@H]1C(=O)N[C@@H](CCCNC(=N)N)C(=O)N[C@@H](Cc1ccc(O)cc1)C(N)=O)[C@@H](C)O)C(=O)O [18b, TAMRA-[K^30(E-Pam)]hPP2–36] (X1-PLEPVYPGDNATPEQMAQYAADLRRYINK([γGlu-Palmitoyl])LTRPRY-NH2)	–	1090 ± 282	11.8 ± 0.8	fold increased half-life in human blood plasma compared to control peptide 14b ([2]; 37°C): more than 10 fold
CCC(=O)N[C@@H](CCC(=O)NCCCC[C@H](NC(=O)[C@H](CC(N)=O)NC(=O)[C@@H](NC(=O)[C@H](Cc1ccc(O)cc1)NC(=O)[C@H](CCCNC(=N)N)NC(=O)[C@H](CCCNC(=N)N)NC(=O)[C@H](CC(C)C)NC(=O)[C@H](CC(=O)O)NC(=O)[C@H](C)NC(=O)[C@H](C)NC(=O)[C@H](Cc1ccc(O)cc1)NC(=O)[C@H](CCC(N)=O)NC(=O)[C@H](C)NC(=O)[C@H](CCSC)NC(=O)[C@H](CCC(N)=O)NC(=O)[C@H](CCC(=O)O)NC(=O)[C@@H]1CCCN1C(=O)[C@@H](NC(=O)[C@H](C)NC(=O)[C@H](CC(N)=O)NC(=O)[C@H](CC(=O)O)NC(=O)CNC(=O)[C@@H]1CCCN1C(=O)[C@H](Cc1ccc(O)cc1)NC(=O)[C@@H](NC(=O)[C@@H]1CCCN1C(=O)[C@H](CCC(=O)O)NC(=O)[C@H](CC(C)C)NC(=O)[C@@H]1CCCN1C(=O)c1ccc2c(c1)C1(OC2=O)c2ccc(N(C)C)cc2Oc2cc(N(C)C)ccc21)C(C)C)[C@@H](C)O)[C@@H](C)CC)C(=O)N[C@@H](CC(C)C)C(=O)N[C@H](C(=O)N[C@@H](CCCNC(=N)N)C(=O)N1CCC[C@H]1C(=O)N[C@@H](CCCNC(=N)N)C(=O)N[C@@H](Cc1ccc(O)cc1)C(N)=O)[C@@H](C)O)C(=O)O [15b, TAMRA-[K^30(E-Prop)]hPP2–36] (X1-PLEPVYPGDNATPEQMAQYAADLRRYINK([γGlu-Propionyl])LTRPRY-NH2)	–	474 ± 17.3	46.7 ± 6.6	–
CCCCCCCC(=O)N[C@@H](CCC(=O)NCCCC[C@H](NC(=O)[C@H](CC(N)=O)NC(=O)[C@@H](NC(=O)[C@H](Cc1ccc(O)cc1)NC(=O)[C@H](CCCNC(=N)N)NC(=O)[C@H](CCCNC(=N)N)NC(=O)[C@H](CC(C)C)NC(=O)[C@H](CC(=O)O)NC(=O)[C@H](C)NC(=O)[C@H](C)NC(=O)[C@H](Cc1ccc(O)cc1)NC(=O)[C@H](CCC(N)=O)NC(=O)[C@H](C)NC(=O)[C@H](CCSC)NC(=O)[C@H](CCC(N)=O)NC(=O)[C@H](CCC(=O)O)NC(=O)[C@@H]1CCCN1C(=O)[C@@H](NC(=O)[C@H](C)NC(=O)[C@H](CC(N)=O)NC(=O)[C@H](CC(=O)O)NC(=O)CNC(=O)[C@@H]1CCCN1C(=O)[C@H](Cc1ccc(O)cc1)NC(=O)[C@@H](NC(=O)[C@@H]1CCCN1C(=O)[C@H](CCC(=O)O)NC(=O)[C@H](CC(C)C)NC(=O)[C@@H]1CCCN1C(=O)c1ccc2c(c1)C1(OC2=O)c2ccc(N(C)C)cc2Oc2cc(N(C)C)ccc21)C(C)C)[C@@H](C)O)[C@@H](C)CC)C(=O)N[C@@H](CC(C)C)C(=O)N[C@H](C(=O)N[C@@H](CCCNC(=N)N)C(=O)N1CCC[C@H]1C(=O)N[C@@H](CCCNC(=N)N)C(=O)N[C@@H](Cc1ccc(O)cc1)C(N)=O)[C@@H](C)O)C(=O)O [16b, TAMRA-[K^30(E-Capr)]hPP2–36] (X1-PLEPVYPGDNATPEQMAQYAADLRRYINK([γGlu-Octanoyl])LTRPRY-NH2)	–	281 ± 26.7	14.6 ± 2.8	–
